{"source": "patent US9737487B2", "about": "“Cyclodextrin compositions encapsulating a selective ATP inhibitor and uses thereof” (The Johns Hopkins University, priority 2014, dated 2017)", "key": {"[1]": {"tested_on": "lucMiaPaCa-2 cells", "experiment": "Monolayer cell culture viability assay (CellTiter-Glo), normoxic or hypoxic, lucMiaPaCa-2", "format": "cell-based", "details": "Homo sapiens; normoxic, 72 hrs. exposure; barely achieved", "method": "(§1) Two human pancreatic adenocarcinoma cell lines, lucMiaPaCa-2 (stably transfected with the luciferase-aminoglycoside phosphotransferase fusion gene, kindly provided by Dr. Phuoc T. Tran) and Suit-2 (kindly provided by Dr. Shinichi Ota, Japan) were cultured in RPMI or MEM media, respectively, both supplemented with 10% FBS and 1% Penicillin-Streptomycin. The effects of different drugs on cell viability were determined by quantifying intracellular adenosine triphosphate (ATP) levels using a luminescence-based kit (CellTiter-Glo, Promega) and a multilable 96-well plate (Costar). The accuracy and reproducibility of viability measurements using this luminiscence-based kit in lucMiaPaCa-2 cells was confirmed using the Dual-Reporter assay kit (Promega). In brief, 5×10^3 cells were seeded in triplicate and incubated for 72 hrs. under normoxic or hypoxic (1% O2-level, balanced with CO2 and nitrogen within a controlled atmosphere chamber) conditions. Indicated amounts of free 3-BrPA, 1:1-β-CD-3-BrPA or β-CD as a control were dissolved in PBS and added to the medium for 24 hrs. of treatment. For the experiments with gemcitabine, cells were incubated for 24 hrs. prior to a 72 hrs. exposure to the drug. Cell viability was determined following the manufacturer's protocol."}, "[2]": {"tested_on": "Suit-2 cells", "experiment": "Monolayer cell culture viability assay (CellTiter-Glo), Suit-2", "format": "cell-based", "details": "Homo sapiens, normoxic, 72 hrs. exposure, barely achieved", "method": "as §1"}, "[3]": {"tested_on": "orthotopic MiaPaCa-2 tumors", "experiment": "Orthotopic lucMiaPaCa-2 xenograft, systemic treatment with BLI follow-up, survival and necropsy (Example 6)", "format": "in vivo, mice", "method": "Male athymic nude mice (body weight, 20-25 g; 4 weeks old; Crl:NU (NCr)-Fox1^nu; Charles River Laboratory, Germantown, Md., USA) were used in accordance with institutional guidelines under approved Animal Care and Use Committee protocols. Mice were maintained in laminar flow rooms at constant temperature and humidity with food and water given ad libitum. Orthotopic xenograft tumors were generated by implantation of 1.5×10^6 lucMiaPaCa-2, suspended in 50 μl PBS, into the tail of the pancreas in anesthetized mice. To accomplish this, mice were placed into a clean anesthesia induction chamber (oxygen flow rate, 1 liter/minute; isoflurane concentration of 3-4%). Upon loss of the righting reflex, animals were placed on the surgical procedure surface, where a nose cone was used to maintain anesthesia (oxygen flow, 0.8 liters/minute; Isoflurane concentration, 1.5-2%). A small, left abdominal flank incision was made, and the pancreas was exteriorized to inject the cell solution using a 30 G Hamilton syringe. A successful subcapsular intrapancreatic injection was identified by the appearance of a fluid bleb without intraperitoneal leakage. The abdominal cavity was closed with a double-layer of non-absorbable suture material (Kim et al. (2009) Nat. Protocol. 4:1670-1680).\nTumor viability was confirmed via in vivo bioluminescence imaging (BLI) on day 7 after the surgical implantation. Anesthetized tumor-bearing mice were injected intraperitoneally with D-luciferin 150 mg/kg and optically imaged 5 minutes later using the IVIS 200 system (Xenogen). The pseudocolor image representing the spatial distribution of photons was overlaid on a previously acquired grayscale photographic image. A region of interest (ROI) was created to include the optical tumor image. Signal intensity was quantified within the ROI in photons/second/squared centimeter/steradian (p/s/cm2/Sr) after a 10-second exposure using Living Image software (Xenogen). Additionally, orthotopic growth of the tumors was confirmed prior to treatment using small-animal ultrasound imaging (USI). In brief, anesthetized mice were subjected to examination using the VEVO2100 (Visual Sonics Inc., Toronto, Canada, kindly provided by Dr. Harry C. Dietz) by applying a MS-550D MicroScan transducer probe with 40 MHz (broadband with 22-55 MHz). Tumor localization was confirmed using the cranial tip of the left kidney and the caudal tip of the spleen as anatomic landmarks (Ota et al. (2013) Target. Oncol. 8:145-151; Tuli et al. (2012) Translat. Oncol. 5:77-84). […]"}, "[4]": {"tested_on": "matrix-metalloproteinase 9 (MMP-9)", "experiment": "MMP-9 secretion by gelatin zymography and immunoblotting, MiaPaCa-2", "format": "cell-based, human", "details": "24 hrs., dose that did not induce apoptosis or reduce cell viability", "method": "(§2) Zymography assays were performed to determine the activity of secreted MMP-9. Accordingly, 4×10^6 Suit-2 cells and 2.5×10^6 lucMiaPaCa-2 cells were seeded in 75 cm^2-flasks and incubated overnight at 37° C. under normoxic conditions. The following day, fresh FBS-free medium containing different concentrations of 3-BrPA was added and cells were incubated for an additional 24 hrs. Subsequently, supernatants were collected, filtered, and the final protein concentrations were determined using the 2D Quant Kit (GE Healthcare). After adjustment for concentration, each sample was loaded onto two 10% gelatin zymography gels (Novex, Invitrogen). Following electrophoresis, proteins in one of the two gels were renaturated and enzymatic digestion was allowed overnight at 37° C. in a developing buffer. The gel was stained with 4 parts 0.1% Coomassie Brilliant Blue in 1 part 100% methanol for 24 hrs. and washed with distilled (DI) water until digested areas were detectable as white bands. Western Blot analysis was performed using the duplicate gel. Proteins were blotted onto a PVDF-Membrane and blocked using 5% skimmed milk in 1×TBS and 0.1% Tween in DI (TBST). […] The HRP provided an […] signal (ECL Kit, GE Healthcare), which was analyzed with ImageJ 1.46r software (Wayne Rasband, National Institute of Health) and used to quantify signal intensity by comparing line integrals."}, "[5]": {"details": "in vivo, after systemic administration; cited from earlier work"}, "[6]": {"experiment": "Comparative dose escalation studies in non-tumor-bearing animals", "format": "in vivo, mice", "details": "after a single injection", "method": "The anti-cancer efficacy of systemically delivered β-CD-3-BrPA was tested using a xenograft model of human pancreatic cancer in athymic nude mice. Prior to choosing the therapeutic dose for more detailed studies, comparative dose escalation studies in non-tumor-bearing animals were performed for both β-CD-3-BrPA and free 3-BrPA. […] animals with orthotopically-implanted and BLI- and USI-confirmed MiaPaCa-2 tumors were then randomized to receive intraperitoneal (i.p.) injections of β-CD-3-BrPA (N=21), gemcitabine (N=7), or β-CD (N=7). An additional group of animals with orthotopic implants (N=7) was treated with free 3-BrPA. […] At the end of the experiment (Day 28), only 2/7 animals (28%) treated with the free drug were still alive (FIG. 12, Panel C). […] After four weeks of treatment, a comparison of BLI signal intensity between the groups was performed. […] After achieving this endpoint, animals were sacrificed and tumors were harvested for further analysis. All animals were subjected to necropsies and organs (brain, heart, lungs, bowel, liver, and kidneys) were harvested for the analysis of potential tissue damage."}, "[7]": {"tested_on": "MiaPaCa-2 cells", "experiment": "Matrigel invasion assay, MiaPaCa-2", "format": "cell-based, human", "details": "sub-lethal concentrations, 48 hrs.", "method": "(§3) The ability of 3-BrPA to inhibit tumor invasion was studied using a matrigel invasion assay, as well as gelatin zymography (Hu and Beeton (2010) J. Visual. Exp. 45:2445; Scott et al. (2011) J. Visual. Exp. 58:e3525). For the matrigel invasion assays, a coating buffer containing 0.01 M Tris and 0.7% sodium chloride was prepared and used to dilute the matrigel basement membrane (BD Biosciences, #356234) to 300 ug/ml. Subsequently, Boyden chambers (Transwell, Corning; 6.5 mm-diameter, 8 um pore size) were coated with 100 μl matrigel solution and stored at 37° C. for 2 hrs. to allow for gelatination. Approximately 7.5×10^4 cells were resuspended in 500 μl FBS-free medium and plated into the upper chamber of the insert, which was then placed into a 24-well plate containing […] FBS-containing medium. After overnight incubation at 37° C., various amounts of 3-BrPA dissolved in PBS were added to the upper chamber. Fourty-eight hours later, non-invasive cells were removed from the matrigel with a cotton swab. Invaded cells adherent to the bottom side of the permeable insert were fixed and stained with the Diff Quik Stain Kit (Polysciences Inc.). […] Invasion of cells was quantified by measuring the area of stained cells after treatment compared to untreated samples at 10× magnification."}, "[8]": {"tested_on": "subcutaneous pancreatic cancer xenografts", "details": "5 mg/kg, twice per week, systemic; cited from earlier work"}, "[9]": {"tested_on": "Suit-2 cells", "experiment": "Matrigel invasion assay, Suit-2", "format": "cell-based, human", "details": "sub-lethal concentrations, 72 hrs.", "method": "as §3"}, "[10]": {"tested_on": "matrix-metalloproteinase 9 (MMP-9)", "experiment": "MMP-9 secretion by gelatin zymography and immunoblotting, Suit-2", "format": "cell-based, human", "details": "24 hrs., dose that did not induce apoptosis or reduce cell viability", "method": "as §2"}}, "note": "Counter-ions that a name gives are not always drawn."}
{"smiles": "Nc1ccn([C@@H]2O[C@H](CO)[C@@H](O)C2(F)F)c(=O)n1", "note": "[gemcitabine, gemcitabine hydrochloride salt]", "values": [{"measurement": "IC50", "setting": "[1]", "value": 100, "unit": "nM"}, {"measurement": "IC50", "setting": "[2]", "value": 100, "unit": "nM"}, {"measurement": "BLI signal increase as compared to baseline", "setting": "[3]; after four weeks of treatment", "value": 60, "unit": "fold"}]}
{"smiles": "O=C(O)C(=O)CBr", "note": "[3-BrPA, 3-bromopyruvate]", "values": [{"measurement": "concentration at which marked reduction in the secretion of MMP-9 begins", "setting": "[4]", "value": 6.25, "unit": "µM"}, {"measurement": "time of inactivation through interaction with serum proteins (as early as)", "setting": "[5]", "value": "2 to 3", "unit": "min"}, {"measurement": "median lethal dose (LD50)", "setting": "[6]", "value": 10, "unit": "mg/kg"}, {"measurement": "drug concentration showing a reduction in invasion (as low as)", "setting": "[7]", "value": 12.5, "unit": "µM"}, {"measurement": "animals died before the acquisition of the first follow-up BLI", "setting": "[3]; daily i.p. 5 mg/kg in 500 μl saline", "value": "3/7"}, {"measurement": "loss of animals at the end of the experiment (treatment-related toxicity, Kaplan-Meier)", "setting": "[3]; daily i.p. 5 mg/kg, 28 days", "value": "5/7"}, {"measurement": "animals still alive at the end of the experiment", "setting": "[3]; daily i.p. 5 mg/kg, Day 28", "value": "2/7"}, {"measurement": "efficacy of 3-BrPA alone", "setting": "[8]", "value": "did not report any significant efficacy"}, {"measurement": "drug concentration showing a reduction in invasion (as low as)", "setting": "[9]", "value": 12.5, "unit": "µM"}, {"measurement": "concentration at which marked reduction in the secretion of MMP-9 begins", "setting": "[10]", "value": 6.25, "unit": "µM"}]}
